The results in this text go back to PMC13608006 (Journal of medicinal chemistry, 2018).

One assay relates to CV-B3 (CVB3-H3). It counts as cell-based, coxsackievirus B3. The conditions noted are these: for SI50 (CV-B3 in HeLa cells): SI50 = CC50/EC50.
A further assay deals with EV-A71. Nature of the assay: antiviral CPE assay, anti-EV-A71 in LLC cells. The conditions noted are these: SI50 = CC50/EC50. It is filed as cell-based, enterovirus 71 (EV-A71).

Consider `CC(C)(C)n1ncc2c(C(=O)Nc3ccccc3F)cc(-c3cccs3)nc21` [JX013, 1-(tert-Butyl)-N-(2-fluorophenyl)-6-(thiophen-2-yl)-1H-pyrazolo[3,4-b]pyridine-4-carboxamide], for which the “antiviral activities against coxsackievirus B3 (CV-B3)” value (“antiviral activities” below) with CV-B3 (CVB3-H3) is listed as “none of the above analogs demonstrated antiviral activities”. Take `CC(C)n1ncc2c(C(=O)Nc3ncccn3)cc(-c3ccsc3)nc21` [JX058, 1-Isopropyl-N-(pyrimidin-2-yl)-6-(thiophen-3-yl)-1H-pyrazolo[3,4-b]pyridine-4-carboxamide]: in the assay with EV-A71, the “SI50 (EV-A71 in LLC cells)” value is reported as “SI50: 41.7”. Also, the “SI50 (CV-B3 in HeLa cells)” value in the assay on CV-B3 (CVB3-H3) is reported as “SI50: 33.3”. For `CC(C)n1ncc2c(C(=O)Nc3ccc(F)c(F)c3)cc(-c3cccs3)nc21` [JX015, N-(3,4-Difluorophenyl)-1-isopropyl-6-(thiophen-2-yl)-1H-pyrazolo[3,4-b]pyridine-4-carboxamide], the “SI50 (CV-B3 in HeLa cells)” value in the assay with CV-B3 (CVB3-H3) is “SI50: >153.8”. `CC(C)n1ccc2c(C(=O)Nc3ccccn3)cc(-c3cccs3)nc21` [JX072, 1-Isopropyl-N-(pyridin-2-yl)-6-(thiophen-2-yl)-1H-pyrrolo-[2,3-b]pyridine-4-carboxamide]: the “SI50 (EV-A71 in LLC cells)” value in the assay on EV-A71 was “SI50: >166.7”. Besides, the “SI50 (CV-B3 in HeLa cells)” value in the assay with CV-B3 (CVB3-H3) is recorded as “SI50: 8.5”. As to `CC(C)n1ncc2c(C(=O)Nc3ccccc3F)cc(-c3ccncc3)nc21` [JX003, N-(2-Fluorophenyl)-1-isopropyl-6-(pyridin-4-yl)-1H-pyrazolo[3,4-b]pyridine-4-carboxamide], the “SI50 (CV-B3 in HeLa cells)” value with CV-B3 (CVB3-H3) is recorded as “SI50: 7.4”. With `CC(C)n1ncc2c(C(=O)Nc3ccncn3)cc(-c3ccsc3)nc21` [JX059, 1-Isopropyl-N-(pyrimidin-4-yl)-6-(thiophen-3-yl)-1H-pyrazolo[3,4-b]pyridine-4-carboxamide], the “SI50 (EV-A71 in LLC cells)” value in the assay on EV-A71 is given as “SI50: >250.0”. The “SI50 (CV-B3 in HeLa cells)” value with CV-B3 (CVB3-H3) is reported as “SI50: >166.7”. As to `CC(C)n1ccc2c(C(=O)Nc3cccnc3)cc(-c3cccs3)nc21` [JX062, 1-Isopropyl-N-(pyridin-3-yl)-6-(thiophen-2-yl)-1H-pyrrolo-[2,3-b]pyridine-4-carboxamide], the “SI50 (EV-A71 in LLC cells)” value in the assay with EV-A71 is on record as “SI50: 31.3”. Moreover, in the assay with CV-B3 (CVB3-H3), the “SI50 (CV-B3 in HeLa cells)” value is listed as “SI50: 13.8”.

Turning to `CC(C)n1ncc2c(C(=O)Nc3c(F)cccc3F)cc(-c3cccs3)nc21` [JX009, N-(2,6-Difluorophenyl)-1-isopropyl-6-(thiophen-2-yl)-1H-pyrazolo[3,4-b]pyridine-4-carboxamide], the “SI50 (EV-A71 in LLC cells)” value in the assay on EV-A71 is “SI50: >58.8”. The “SI50 (CV-B3 in HeLa cells)” value in the assay with CV-B3 (CVB3-H3) is recorded as “SI50: >62.5”. For `CNS(=O)(=O)c1cccc(NC(=O)c2cc(-c3cccs3)nc3c2cnn3C(C)C)c1` [JX053, 1-Isopropyl-N-(3-(N-methylsulfamoyl)phenyl)-6-(thiophen-2-yl)-1H-pyrazolo[3,4-b]pyridine-4-carboxamide], the “SI50 (EV-A71 in LLC cells)” value in the assay with EV-A71 was “SI50: 35.7”. In the assay on CV-B3 (CVB3-H3), the “SI50 (CV-B3 in HeLa cells)” value is “SI50: 24.0”.

In the case of `CC(C)n1ncc2c(C(=O)Nc3ccccc3F)cc(-c3cncs3)nc21` [JX010, N-(2-Fluorophenyl)-1-isopropyl-6-(thiazol-5-yl)-1H-pyrazolo[3,4-b]pyridine-4-carboxamide], the “SI50 (EV-A71 in LLC cells)” value with EV-A71 was “SI50: 27.0”. The “SI50 (CV-B3 in HeLa cells)” value in the assay with CV-B3 (CVB3-H3) is listed as “SI50: >60.6”. `O=C(Nc1ccc(F)cc1)c1cc(-c2cccs2)nc2c1cnn2C1CCCC1` [JX027, 1-Cyclopentyl-N-(4-fluorophenyl)-6-(thiophen-2-yl)-1H-pyrazolo[3,4-b]pyridine-4-carboxamide]: the “antiviral activities” value in the assay with CV-B3 (CVB3-H3) was “none of the above analogs demonstrated antiviral activities”. Take `CC(C)n1ncc2c(C(=O)Nc3ccc(F)c(S(N)(=O)=O)c3)cc(-c3cccs3)nc21` [JX069, N-(4-Fluoro-3-sulfamoylphenyl)-1-isopropyl-6-(thiophen-2-yl)-1H-pyrazolo[3,4-b]pyridine-4-carboxamide]: the “SI50 (EV-A71 in LLC cells)” value with EV-A71 is reported as “SI50: 62.5”. In the assay with CV-B3 (CVB3-H3), the “SI50 (CV-B3 in HeLa cells)” value was “SI50: >181.8”. Turning to `CC(C)n1ncc2c(C(=O)Nc3c(F)cc(F)cc3F)cc(-c3cccs3)nc21` [JX020, 1-Isopropyl-6-(thiophen-2-yl)-N-(2,4,6-trifluorophenyl)-1H-pyrazolo[3,4-b]pyridine-4-carboxamide], the “SI50 (EV-A71 in LLC cells)” value with EV-A71 is “SI50: >66.7”. Also, the “SI50 (CV-B3 in HeLa cells)” value with CV-B3 (CVB3-H3) is on record as “SI50: >111.1”. `CC(C)n1ncc2c(C(=O)Nc3ccccn3)cc(C3CC3)nc21` [JX071, 6-Cyclopropyl-1-isopropyl-N-(pyridin-2-yl)-1H-pyrazolo[3,4-b]pyridine-4-carboxamide]: the “SI50 (EV-A71 in LLC cells)” value with EV-A71 was “SI50: 5.3”. The “SI50 (CV-B3 in HeLa cells)” value in the assay on CV-B3 (CVB3-H3) was “SI50: 5.3”. For `O=C(Nc1ccccc1F)c1cc(-c2cccs2)nc2c1cnn2C1CCC1` [JX014, 1-Cyclobutyl-N-(2-fluorophenyl)-6-(thiophen-2-yl)-1H-pyrazolo[3,4-b]pyridine-4-carboxamide], the “antiviral activities” value in the assay on CV-B3 (CVB3-H3) was “none of the above analogs demonstrated antiviral activities”. For `CC(C)n1ncc2c(C(=O)Nc3ccccn3)cc(-c3ccccc3)nc21` [JX070, 1-Isopropyl-6-phenyl-N-(pyridin-2-yl)-1H-pyrazolo[3,4-b]-pyridine-4-carboxamide], the “SI50 (EV-A71 in LLC cells)” value in the assay with EV-A71 is listed as “SI50: 17.9”. In the assay on CV-B3 (CVB3-H3), the “SI50 (CV-B3 in HeLa cells)” value is listed as “SI50: 11.8”. As for `CC(C)n1ncc2c(C(=O)Nc3cccnc3)cc(-c3ccsc3)nc21` [JX060, 1-Isopropyl-N-(pyridin-3-yl)-6-(thiophen-3-yl)-1H-pyrazolo-[3,4-b]pyridine-4-carboxamide], the “SI50 (EV-A71 in LLC cells)” value in the assay with EV-A71 is reported as “SI50: 15.4”. The “SI50 (CV-B3 in HeLa cells)” value in the assay with CV-B3 (CVB3-H3) is “SI50: 30.0”. Turning to `O=C(Nc1ccc(F)cc1)c1cc(-c2cccs2)nc2[nH]ncc12` [JX032, N-(4-Fluorophenyl)-6-(thiophen-2-yl)-1H-pyrazolo[3,4-b]-pyridine-4-carboxamide], in the assay on CV-B3 (CVB3-H3), the “antiviral activities” value is listed as “none of the above analogs demonstrated antiviral activities”. For `CC(C)n1ncc2c(C(=O)Nc3ccccc3F)cc(-c3ccccn3)nc21` [JX004, N-(2-Fluorophenyl)-1-isopropyl-6-(pyridin-2-yl)-1H-pyrazolo[3,4-b]pyridine-4-carboxamide], the “SI50 (CV-B3 in HeLa cells)” value in the assay with CV-B3 (CVB3-H3) is “SI50: >29.0”. As for `CC(C)n1ncc2c(C(=O)Nc3ccncc3)cc(-c3cccs3)nc21` [JX042, 1-Isopropyl-N-(pyridin-4-yl)-6-(thiophen-2-yl)-1H-pyrazolo-[3,4-b]pyridine-4-carboxamide], the “SI50 (EV-A71 in LLC cells)” value in the assay with EV-A71 is “SI50: 15.8”. Further, in the assay with CV-B3 (CVB3-H3), the “SI50 (CV-B3 in HeLa cells)” value was “SI50: 10.0”. With `CC(C)n1ncc2c(C(=O)Nc3ccccn3)cc(-c3ccsc3)nc21` [JX057, 1-Isopropyl-N-(pyridin-2-yl)-6-(thiophen-3-yl)-1H-pyrazolo-[3,4-b]pyridine-4-carboxamide], the “SI50 (EV-A71 in LLC cells)” value with EV-A71 is recorded as “SI50: 31.3”. In addition, in the assay with CV-B3 (CVB3-H3), the “SI50 (CV-B3 in HeLa cells)” value is on record as “SI50: 15.0”. Regarding `COc1ccc(Cn2ncc3c(C(=O)Nc4ccc(F)cc4)cc(-c4cccs4)nc32)cc1` [JX031, N-(4-Fluorophenyl)-1-(4-methoxybenzyl)-6-(thiophen-2-yl)-1H-pyrazolo[3,4-b]pyridine-4-carboxamide], the “antiviral activities” value in the assay on CV-B3 (CVB3-H3) is recorded as “none of the above analogs demonstrated antiviral activities”. As to `CC(C)n1ncc2c(C(=O)Nc3ccccc3F)cc(-c3cccnc3)nc21` [JX005, N-(2-Fluorophenyl)-1-isopropyl-6-(pyridin-3-yl)-1H-pyrazolo[3,4-b]pyridine-4-carboxamide], in the assay on CV-B3 (CVB3-H3), the “SI50 (CV-B3 in HeLa cells)” value is recorded as “SI50: 5.4”. With `CC(C)n1ccc2c(C(=O)Nc3ccc(F)cc3)cc(-c3cccs3)nc21` [JX037, N-(4-Fluorophenyl)-1-isopropyl-6-(thiophen-2-yl)-1H-pyrrolo[2,3-b]pyridine-4-carboxamide], the “SI50 (CV-B3 in HeLa cells)” value in the assay with CV-B3 (CVB3-H3) was “SI50: 64.5”. Consider `CC(C)n1ncc2c(C(=O)Nc3ccccc3F)cc(-c3ccccc3)nc21` [JX002, N-(2-Fluorophenyl)-1-isopropyl-6-phenyl-1H-pyrazolo[3,4-b]pyridine-4-carboxamide], for which the “SI50 (EV-A71 in LLC cells)” value in the assay on EV-A71 is reported as “SI50: >35.1”. Besides, in the assay on CV-B3 (CVB3-H3), the “SI50 (CV-B3 in HeLa cells)” value is given as “SI50: 8.3”. In the case of `O=C(Nc1ccccc1F)c1cc(-c2cccs2)nc2c1cnn2CC(F)(F)F` [JX022, N-(2-Fluorophenyl)-6-(thiophen-2-yl)-1-(2,2,2-trifluoroethyl)-1H-pyrazolo[3,4-b]pyridine-4-carboxamide], the “antiviral activities” value with CV-B3 (CVB3-H3) is “none of the above analogs demonstrated antiviral activities”. For `CC(C)n1ncc2c(C(=O)Nc3ccc(F)cc3)cc(-c3ccco3)nc21` [JX026, N-(4-Fluorophenyl)-6-(furan-2-yl)-1-isopropyl-1H-pyrazolo-[3,4-b]pyridine-4-carboxamide], the “SI50 (EV-A71 in LLC cells)” value with EV-A71 is on record as “SI50: >76.9”. Further, the “SI50 (CV-B3 in HeLa cells)” value in the assay with CV-B3 (CVB3-H3) was “SI50: >83.0”. For the compound `CC(C)n1ncc2c(C(=O)Nc3cc(F)ccc3F)cc(-c3cccs3)nc21` [JX018, N-(2,5-Difluorophenyl)-1-isopropyl-6-(thiophen-2-yl)-1H-pyrazolo[3,4-b]pyridine-4-carboxamide], the “SI50 (EV-A71 in LLC cells)” value in the assay with EV-A71 is recorded as “SI50: 28.6”. In addition, the “SI50 (CV-B3 in HeLa cells)” value in the assay with CV-B3 (CVB3-H3) is “SI50: >74.1”. Regarding `O=C(Nc1ccc(F)cc1)c1cc(-c2cccs2)nc2c1cnn2C1CCCCC1` [JX028, 1-Cyclohexyl-N-(4-fluorophenyl)-6-(thiophen-2-yl)-1H-pyrazolo[3,4-b]pyridine-4-carboxamide], the “antiviral activities” value in the assay with CV-B3 (CVB3-H3) is “none of the above analogs demonstrated antiviral activities”. `O=C(Nc1ccccc1F)c1cc(-c2cccs2)nc2c1cnn2-c1ccccc1` [JX012, N-(2-Fluorophenyl)-1-phenyl-6-(thiophen-2-yl)-1H-pyrazolo[3,4-b]pyridine-4-carboxamide]: in the assay on CV-B3 (CVB3-H3), the “antiviral activities” value was “none of the above analogs demonstrated antiviral activities”. With `O=C(Nc1ccc(F)cc1)c1cc(-c2cccs2)nc2c1cnn2C1CCCCCC1` [JX029, 1-Cycloheptyl-N-(4-fluorophenyl)-6-(thiophen-2-yl)-1H-pyrazolo[3,4-b]pyridine-4-carboxamide], the “antiviral activities” value with CV-B3 (CVB3-H3) is “none of the above analogs demonstrated antiviral activities”.
